Assay results: publication PMC8232704, “Hydrophobic Tagging-Mediated Degradation of Transcription Coactivator SRC-1” (International Journal of Molecular Sciences, 2021)
Bridge positions count the residues as written; N and C are the ends. Square brackets hold non-standard residues; d marks the D form. Peptide text beside a SMILES is read from it. N(1-adamantyl)Gly = O=C(O)CNC12CC3CC(CC(C3)C1)C2; Cha = N[C@@H](CC1CCCCC1)C(=O)O; S5 = C=CCCC[C@](C)(N)C(=O)O; PEG2 = NCCOCCOCCC(=O)O; PEG1 = NCCOCCC(=O)O; Ahx = NCCCCCC(=O)O; Ava = NCCCCC(=O)O; GABA = NCCCC(=O)O

Tests used:
[1] = target: T1, PAS-B domain of human SRC-1 (residues 257–385) (Homo sapiens, UniProt Q15788); assay: Competitive fluorescence polarization (FP) assay, fluorescein-labeled STAT-6 peptide binding to SRC-1; conditions: 100 nM fluorescein-labeled 15-mer STAT-6 peptide, 1 μM PAS-B domain of SRC-1, HEPES pH 7.4, SD from three independent experiments
T1 construct: PAS-B domain of human SRC-1 (residues 257–385); His6; made in house; host or cells: Rosetta E. coli
T1 sequence (Q15788 257-385): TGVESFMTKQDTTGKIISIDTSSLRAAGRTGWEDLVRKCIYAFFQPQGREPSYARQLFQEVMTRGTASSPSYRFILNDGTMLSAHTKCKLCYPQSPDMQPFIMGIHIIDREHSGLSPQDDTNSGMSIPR
Method: A plasmid expressing the PAS-B domain of human SRC-1 (residues 257–385) tagged with His6 was provided by John A. Robinson (University of Zürich at Switzerland). It was transformed into Rosetta E. coli cells. SRC-1 protein purification was performed as described previously.
After incubating 100 nM of fluorescein-labeled 15-mer STAT-6 peptide with 1 μM of PAS-B domain of SRC-1 in a binding buffer (50 mM HEPES pH 7.4, 150 mM NaCl, 3.4 mM EDTA, and 0.01% Tween 20) in a black Greiner 384-well plate for 30 min, indicated concentrations of YL2 and YL2-HyT1 through YL2-HyT6 were added to each well. After incubation for another 1.5 h, fluorescence polarization was measured on a Tecan Infinite F200 Pro microplate reader (excitation wavelength: 485 nm, emission wavelength: 535 nm). The Ki values of the compounds in the competition assay were determined using the following equation [43]. (1) Ki=[I]50/[L]50/KD+[P]0/KD+1 where [I]50 is the concentration of the free inhibitor at 50% inhibition, KD is the dissociation constant of the protein–ligand complex, [L]50 is the concentration of the free labeled ligand at 50% inhibition, and [P]0 is the concentration of the free protein at 0% inhibition.

[2] = Circular dichroism (CD), calculated helicity; type: physicochemical; conditions: 50 μM peptide in 30% PBS (pH 7.4) and 70% acetonitrile, calculated from CD spectra
Method: Lyophilized compounds (YL2 and YL2-HyT1 through YL2-HyT6) were dissolved in 30% PBS (pH 7.4) and 70% acetonitrile solution to a final concentration of 50 μM. CD spectra were measured with a Jasco J-815 CD spectropolarimeter using a quartz cuvette (2 mm path length). These spectra were averages of five successive accumulations with a scan rate of 100 nm/min. Raw data were converted in terms of per-residue molar ellipticity (deg·cm^2·dmol^−1·residue^−1) as calculated per mole of amide groups present and normalized by the molar concentration of peptides. Smoothing and correction of background spectra were performed with Origin Pro 8.0 (OriginLab Corporation, Northampton, MA, USA). Then α-helical propensities of YL2 and YL2-HyT1 through YL2-HyT6 were calculated as previously reported.

[3] = target: T2, SRC-1 in MDA-MB-231 cells (Homo sapiens, UniProt Q15788); assay: Immunoblot analysis of cellular SRC-1 levels (SRC-1 degradation); type: cell-based; conditions: MDA-MB-231 cells, 18 h; for SRC-1 (%): normalized to GAPDH and DMSO controls
T2 construct: endogenous in cells; host or cells: MDA-MB-231
Method: MDA-MB-231 and HEK293T cells were cultured in a medium containing Dulbecco’s modified eagle medium (DMEM) supplemented with 1% penicillin–streptomycin (PS) and 10% FBS with 5% CO2 at 37 °C.
MDA-MB-231 cells were seeded into 6-well pates (Corning, 3506) at a density of 6 × 10^5 cell per well. After incubation at 37 °C for 24 h, cells were treated with synthesized compounds in Opti-MEM medium for 12, 18, or 24 h. Cells were washed twice with cold Dulbecco’s phosphate-buffered saline (DPBS) prior to cell lysis using a cell lysis buffer (1% Triton X-100, 150 mM NaCl, 50 mM Tris-HCl pH 7.6, 0.1% SDS, 0.5% sodium deoxycholate, and 1 × protease inhibitor cocktail) on ice. Cell lysates were centrifuged at 13,000 rpm at 4 °C for 15 min. The supernatant was collected, and protein concentration was determined using Pierce^TM 660nm protein assay. A 6 × SDS loading buffer was added to the cell lysate and incubated at 95 °C for 5 min. The same amount of protein was subjected to SDS-PAGE and transferred to PVDF membranes. After blocking membranes with 5% skim milk in TBST (Tris-buffered saline with 0.05% Tween 20), membranes were incubated with a primary antibody at 4 °C overnight. Membranes were then incubated with HRP-linked secondary antibody at rt for 1 h and developed with Pico ECL solution. In MG-132 and 17-AAG treatment experiments, MDA-MB-231 cells were cotreated with synthesized compounds and MG-132 (5 μM) or 17-AAG (1 μM) at 37 °C for 18 h.

[4] = system: CSF-1 mRNA in MDA-MB-231 cells; assay: RT-qPCR of CSF-1 mRNA; type: cell-based, human; conditions: 18 h, RT-qPCR normalized to 18S
Method: (§1) Quantitative real-time PCR was performed for CSF-1, E-cadherin, and 18S (as a reference gene) mRNAs. MDA-MB-231 cells (1.2 × 10^5 cells/well) were seeded into a 12-well plate and incubated at 37 °C with 5% CO2 for 24 h. These cells were treated with indicated compounds (YL2, adamantane, ND1-YL2, or YL2-HyT6) for 18 h in Opti-MEM medium. After cells were washed with cold DPBS, mRNAs were isolated from these cells using an AccuPrep Universal RNA extraction kit (Bioneer, Daejeon, Korea). Then 1.5 µg of mRNAs were reverse-transcribed using AccuPower RocketScript Cycle RT PreMix (Bioneer) to generate complementary DNAs. RT-qPCR for CSF-1, E-cadherin, and 18S was performed with a StepOnePlus Real-Time PCR System (Applied Biosystems, Waltham, MA, USA) and SYBR Green mix (Applied Biosystems) according to the manufacturer’s instructions with gene-specific primers (Table 1).

[5] = system: E-cadherin mRNA in MDA-MB-231 cells; assay: RT-qPCR of E-cadherin mRNA; type: cell-based, human; conditions: 18 h, RT-qPCR normalized to 18S
Method: as §1

SRC-1 [6] = conditions: in vitro binding activity; cited from earlier work
Excerpt: The SRC-1 degrader ND1-YL2 is a chimeric molecule composed of a ligand (YL2) for SRC-1 [31] and a UBR E3 ligase binder (Figure 2). […] ND1-YL2 was generated by conjugating a tetrapeptide RLAA, the N-degron peptide as a binder for UBR. Thus, this bifunctional molecule enables the recruitment of SRC-1 to UBR protein, thereby promoting the formation of a ternary complex for polyubiquitination and proteasomal degradation of SRC-1.

SRC-1 [7] = conditions: stapled peptide lacking the hydrophobic tag; cited from earlier work
Method: Cellular levels of SRC-1 were analyzed at various time points (12, 18, and 24 h) by immunoblotting.

[8] = set-up: method as in PMID 29090910; conditions: compared with the corresponding native peptide sequence; cited from earlier work
[9] = set-up: method as in PMID 29090910; conditions: cited from earlier work

T2 sequence (Q15788 whole entry): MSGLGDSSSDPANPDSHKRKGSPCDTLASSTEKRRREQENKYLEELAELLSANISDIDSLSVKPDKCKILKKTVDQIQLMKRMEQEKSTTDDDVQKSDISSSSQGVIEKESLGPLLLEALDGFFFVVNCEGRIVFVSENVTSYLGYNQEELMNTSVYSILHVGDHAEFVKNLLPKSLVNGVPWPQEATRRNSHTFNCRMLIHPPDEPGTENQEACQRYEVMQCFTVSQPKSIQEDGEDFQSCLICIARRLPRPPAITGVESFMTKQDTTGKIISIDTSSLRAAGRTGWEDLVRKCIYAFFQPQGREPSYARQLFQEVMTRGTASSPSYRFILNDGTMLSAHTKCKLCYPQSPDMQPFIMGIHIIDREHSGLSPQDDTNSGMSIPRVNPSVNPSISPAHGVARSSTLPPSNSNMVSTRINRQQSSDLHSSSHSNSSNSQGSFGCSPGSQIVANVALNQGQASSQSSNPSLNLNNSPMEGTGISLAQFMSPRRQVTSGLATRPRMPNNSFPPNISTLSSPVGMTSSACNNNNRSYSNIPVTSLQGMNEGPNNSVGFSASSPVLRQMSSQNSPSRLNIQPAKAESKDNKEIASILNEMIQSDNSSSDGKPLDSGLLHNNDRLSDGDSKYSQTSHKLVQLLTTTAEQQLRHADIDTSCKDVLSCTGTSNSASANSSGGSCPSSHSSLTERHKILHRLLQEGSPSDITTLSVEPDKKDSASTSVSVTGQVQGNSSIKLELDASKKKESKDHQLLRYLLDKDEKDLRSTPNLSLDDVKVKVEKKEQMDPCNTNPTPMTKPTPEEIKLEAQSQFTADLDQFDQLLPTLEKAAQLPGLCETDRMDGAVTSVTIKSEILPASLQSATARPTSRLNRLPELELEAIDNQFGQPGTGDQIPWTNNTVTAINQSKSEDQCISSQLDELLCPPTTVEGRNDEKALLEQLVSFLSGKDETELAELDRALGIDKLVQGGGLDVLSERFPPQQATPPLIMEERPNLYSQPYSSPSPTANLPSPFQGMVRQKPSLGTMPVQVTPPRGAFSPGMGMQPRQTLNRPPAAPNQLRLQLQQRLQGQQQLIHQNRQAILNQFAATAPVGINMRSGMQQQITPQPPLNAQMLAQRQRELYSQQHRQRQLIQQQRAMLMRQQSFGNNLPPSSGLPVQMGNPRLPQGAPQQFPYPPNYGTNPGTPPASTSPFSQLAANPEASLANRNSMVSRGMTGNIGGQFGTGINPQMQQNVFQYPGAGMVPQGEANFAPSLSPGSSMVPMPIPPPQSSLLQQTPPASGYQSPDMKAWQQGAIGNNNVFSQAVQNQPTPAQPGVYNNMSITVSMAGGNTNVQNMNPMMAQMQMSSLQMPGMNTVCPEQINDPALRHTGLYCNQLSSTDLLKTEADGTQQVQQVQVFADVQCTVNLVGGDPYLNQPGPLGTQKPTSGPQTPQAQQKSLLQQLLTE

| Ki [1] | Helicity (%) [2] | SRC-1 (%) ([3]; 10 μM compound) | SRC-1 (%) ([3]; 20 μM compound) | SRC-1 (%) ([3]; 50 μM compound) | SRC-1 degradation (immunoblot) ([3]; 20 μM) | Compound | CSF-1 mRNA expression level [4] | E-cadherin mRNA expression level [5] | Ki (SRC-1 [6]) | SRC-1 degradation (SRC-1 [7]) | Proteolytic resistance [8] | Cell penetration ability [9] |
| --- | --- | --- | --- | --- | --- | --- | --- | --- | --- | --- | --- | --- |
| 1080 ± 32 nM | 24.1% | 98% | 99% | 91% |  | CC(C)C[C@H](NC(=O)CCCNC(=O)CNC12CC3CC(CC(C3)C1)C2)C(=O)N[C@@H](CC(C)C)C(=O)N1CCC[C@H]1C(=O)N1CCC[C@H]1C(=O)N[C@H](C(=O)N[C@@H](CCC(=O)O)C(=O)N[C@@H](CCC(N)=O)C(=O)N[C@@H](CC(=O)O)C(=O)N[C@@H](CC(C)C)C(=O)N[C@@]1(C)CCC/C=C\CCC[C@@](C)(C(=O)N[C@@H](Cc2ccc(O)cc2)C(N)=O)NC(=O)[C@H](CC2CCCCC2)NC(=O)[C@H](CC(C)C)NC(=O)[C@H](CCCCN)NC1=O)[C@@H](C)O [YL2-HyT1] (H-[N(1-adamantyl)Gly][GABA]LLPPTEQDL[S5]KL[Cha][S5]Y-NH2; staple (Z) 12-16; C-terminus assumed) |  |  |  |  |  |  |
| 1520 ± 87 nM | 18.7% | 92% | 85% | 66% |  | CC(C)C[C@H](NC(=O)CCCCNC(=O)CNC12CC3CC(CC(C3)C1)C2)C(=O)N[C@@H](CC(C)C)C(=O)N1CCC[C@H]1C(=O)N1CCC[C@H]1C(=O)N[C@H](C(=O)N[C@@H](CCC(=O)O)C(=O)N[C@@H](CCC(N)=O)C(=O)N[C@@H](CC(=O)O)C(=O)N[C@@H](CC(C)C)C(=O)N[C@@]1(C)CCC/C=C\CCC[C@@](C)(C(=O)N[C@@H](Cc2ccc(O)cc2)C(N)=O)NC(=O)[C@H](CC2CCCCC2)NC(=O)[C@H](CC(C)C)NC(=O)[C@H](CCCCN)NC1=O)[C@@H](C)O [YL2-HyT2] (H-[N(1-adamantyl)Gly][Ava]LLPPTEQDL[S5]KL[Cha][S5]Y-NH2; staple (Z) 12-16; C-terminus assumed) |  |  |  |  |  |  |
| 681 ± 54 nM | 24.9% | 73% | 58% | 50% |  | CC(C)C[C@H](NC(=O)CCCCCNC(=O)CNC12CC3CC(CC(C3)C1)C2)C(=O)N[C@@H](CC(C)C)C(=O)N1CCC[C@H]1C(=O)N1CCC[C@H]1C(=O)N[C@H](C(=O)N[C@@H](CCC(=O)O)C(=O)N[C@@H](CCC(N)=O)C(=O)N[C@@H](CC(=O)O)C(=O)N[C@@H](CC(C)C)C(=O)N[C@@]1(C)CCC/C=C\CCC[C@@](C)(C(=O)N[C@@H](Cc2ccc(O)cc2)C(N)=O)NC(=O)[C@H](CC2CCCCC2)NC(=O)[C@H](CC(C)C)NC(=O)[C@H](CCCCN)NC1=O)[C@@H](C)O [YL2-HyT3] (H-[N(1-adamantyl)Gly][Ahx]LLPPTEQDL[S5]KL[Cha][S5]Y-NH2; staple (Z) 12-16; C-terminus assumed) |  |  |  |  |  |  |
| 484 ± 52 nM | 29.9% | 83% | 53% | 70% |  | CC(C)C[C@H](NC(=O)CCOCCNC(=O)CNC12CC3CC(CC(C3)C1)C2)C(=O)N[C@@H](CC(C)C)C(=O)N1CCC[C@H]1C(=O)N1CCC[C@H]1C(=O)N[C@H](C(=O)N[C@@H](CCC(=O)O)C(=O)N[C@@H](CCC(N)=O)C(=O)N[C@@H](CC(=O)O)C(=O)N[C@@H](CC(C)C)C(=O)N[C@@]1(C)CCC/C=C\CCC[C@@](C)(C(=O)N[C@@H](Cc2ccc(O)cc2)C(N)=O)NC(=O)[C@H](CC2CCCCC2)NC(=O)[C@H](CC(C)C)NC(=O)[C@H](CCCCN)NC1=O)[C@@H](C)O [YL2-HyT4] (H-[N(1-adamantyl)Gly][PEG1]LLPPTEQDL[S5]KL[Cha][S5]Y-NH2; staple (Z) 12-16; C-terminus assumed) |  |  |  |  |  |  |
| 549 ± 17 nM | 27.2% | 78% | 95% | 57% |  | CC(C)C[C@H](NC(=O)CCOCCOCCNC(=O)CNC12CC3CC(CC(C3)C1)C2)C(=O)N[C@@H](CC(C)C)C(=O)N1CCC[C@H]1C(=O)N1CCC[C@H]1C(=O)N[C@H](C(=O)N[C@@H](CCC(=O)O)C(=O)N[C@@H](CCC(N)=O)C(=O)N[C@@H](CC(=O)O)C(=O)N[C@@H](CC(C)C)C(=O)N[C@@]1(C)CCC/C=C\CCC[C@@](C)(C(=O)N[C@@H](Cc2ccc(O)cc2)C(N)=O)NC(=O)[C@H](CC2CCCCC2)NC(=O)[C@H](CC(C)C)NC(=O)[C@H](CCCCN)NC1=O)[C@@H](C)O [YL2-HyT5] (H-[N(1-adamantyl)Gly][PEG2]LLPPTEQDL[S5]KL[Cha][S5]Y-NH2; staple (Z) 12-16; C-terminus assumed) |  |  |  |  |  |  |
|  | 32.5% |  |  |  |  | CC(C)C[C@@H]1NC(=O)[C@H](CCCCN)NC(=O)[C@@](C)(NC(=O)[C@H](CC(C)C)NC(=O)[C@H](CC(=O)O)NC(=O)[C@H](CCC(N)=O)NC(=O)[C@H](CCC(=O)O)NC(=O)[C@@H](NC(=O)[C@@H]2CCCN2C(=O)[C@@H]2CCCN2C(=O)[C@H](CC(C)C)NC(=O)[C@@H](N)CC(C)C)[C@@H](C)O)CCC/C=C\CCC[C@@](C)(C(=O)N[C@@H](Cc2ccc(O)cc2)C(N)=O)NC(=O)[C@H](CC2CCCCC2)NC1=O [YL2] (H-LLPPTEQDL[S5]KL[Cha][S5]Y-NH2; staple (Z) 10-14; N-terminus assumed) | no effect | no effect | 140 nM | unable to induce SRC-1 degradation | increased proteolytic resistance | reasonable cell penetration ability |
|  |  |  |  |  | no effect | C1C2CC3CC1CC(C2)C3 [adamantane] | no effect | no effect |  |  |  |  |
